Data published in ChEMBL document CHEMBL1914352, “Design, synthesis, docking, and biological evaluation of novel diazide-containing isoxazole- and pyrazole-based histone deacetylase probes” (J Med Chem, 2011).
Calls of active or inactive are those of the source. No cut-off for these calls is given here.

What was measured:
[1] = biological target: T1, Polyamine deacetylase HDAC10 (Homo sapiens, UniProt Q969S8); experiment: Inhibition of human recombinant HDAC10 using fluorophore-conjugated substrate Boc-L-Lys(Ac)-AMC after 60 mins
T1 sequence (Q969S8 whole entry): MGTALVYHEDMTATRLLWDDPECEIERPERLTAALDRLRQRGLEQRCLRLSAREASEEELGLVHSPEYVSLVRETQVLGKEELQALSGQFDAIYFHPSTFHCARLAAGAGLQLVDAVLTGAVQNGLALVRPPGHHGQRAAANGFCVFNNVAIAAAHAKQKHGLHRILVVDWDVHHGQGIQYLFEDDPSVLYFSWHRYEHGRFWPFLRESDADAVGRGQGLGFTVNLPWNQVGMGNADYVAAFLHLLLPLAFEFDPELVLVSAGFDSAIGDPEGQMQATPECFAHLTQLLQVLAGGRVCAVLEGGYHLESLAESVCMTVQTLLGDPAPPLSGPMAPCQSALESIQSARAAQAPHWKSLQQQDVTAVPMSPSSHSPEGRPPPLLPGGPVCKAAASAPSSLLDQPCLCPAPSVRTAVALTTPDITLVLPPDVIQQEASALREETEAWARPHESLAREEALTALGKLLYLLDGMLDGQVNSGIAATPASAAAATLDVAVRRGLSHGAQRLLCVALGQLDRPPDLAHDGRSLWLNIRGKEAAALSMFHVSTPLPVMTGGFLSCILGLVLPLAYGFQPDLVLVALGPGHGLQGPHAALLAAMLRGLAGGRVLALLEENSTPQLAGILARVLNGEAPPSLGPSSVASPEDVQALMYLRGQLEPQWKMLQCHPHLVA

[2] = biological target: T2, Histone deacetylase 7 (Homo sapiens, UniProt Q8WUI4); experiment: Inhibition of human recombinant HDAC7 using fluorophore-conjugated substrate Boc-L-Lys(Ac)-AMC after 60 mins
T2 sequence (Q8WUI4 whole entry): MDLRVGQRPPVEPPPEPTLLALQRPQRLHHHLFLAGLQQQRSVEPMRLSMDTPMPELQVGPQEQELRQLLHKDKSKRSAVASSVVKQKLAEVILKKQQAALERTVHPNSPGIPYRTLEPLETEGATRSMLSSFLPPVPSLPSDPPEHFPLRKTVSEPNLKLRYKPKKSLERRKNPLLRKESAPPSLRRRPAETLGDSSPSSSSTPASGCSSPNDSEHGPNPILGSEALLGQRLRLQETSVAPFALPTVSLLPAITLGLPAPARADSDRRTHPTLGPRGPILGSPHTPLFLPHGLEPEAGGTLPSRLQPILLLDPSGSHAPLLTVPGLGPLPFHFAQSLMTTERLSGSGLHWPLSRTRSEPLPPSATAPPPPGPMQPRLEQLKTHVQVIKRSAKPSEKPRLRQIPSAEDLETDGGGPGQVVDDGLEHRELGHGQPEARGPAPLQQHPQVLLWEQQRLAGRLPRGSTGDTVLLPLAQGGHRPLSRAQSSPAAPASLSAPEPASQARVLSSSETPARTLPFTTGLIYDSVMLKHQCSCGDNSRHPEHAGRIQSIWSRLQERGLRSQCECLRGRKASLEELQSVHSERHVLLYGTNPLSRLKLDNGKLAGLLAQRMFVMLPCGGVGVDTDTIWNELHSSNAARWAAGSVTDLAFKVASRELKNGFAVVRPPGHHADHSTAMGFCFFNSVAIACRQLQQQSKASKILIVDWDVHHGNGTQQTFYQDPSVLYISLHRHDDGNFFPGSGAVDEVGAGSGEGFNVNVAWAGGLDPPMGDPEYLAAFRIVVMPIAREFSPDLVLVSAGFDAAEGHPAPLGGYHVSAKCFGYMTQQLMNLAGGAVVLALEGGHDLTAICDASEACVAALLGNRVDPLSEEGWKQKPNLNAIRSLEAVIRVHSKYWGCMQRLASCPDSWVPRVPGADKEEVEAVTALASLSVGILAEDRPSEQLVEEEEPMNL

[3] = test system: HeLa; experiment: cells; type: functional, cell-based; details: Homo sapiens, 24 h
[4] = biological target: T3, Histone deacetylase 11 (Homo sapiens, UniProt Q96DB2); experiment: Inhibition of human recombinant HDAC11 using fluorophore-conjugated substrate Boc-L-Lys(Ac)-AMC after 60 mins
T3 sequence (Q96DB2 whole entry): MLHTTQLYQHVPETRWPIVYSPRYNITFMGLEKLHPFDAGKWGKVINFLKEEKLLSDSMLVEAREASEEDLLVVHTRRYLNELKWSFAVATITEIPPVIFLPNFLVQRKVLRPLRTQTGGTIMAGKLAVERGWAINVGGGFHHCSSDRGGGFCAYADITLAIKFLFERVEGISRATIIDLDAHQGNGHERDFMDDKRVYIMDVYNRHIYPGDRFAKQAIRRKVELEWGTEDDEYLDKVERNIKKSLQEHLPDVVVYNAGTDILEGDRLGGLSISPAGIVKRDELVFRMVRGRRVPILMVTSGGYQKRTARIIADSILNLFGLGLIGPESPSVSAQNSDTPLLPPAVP

[5] = biological target: Histone deacetylase 9 (Homo sapiens, UniProt Q9UKV0); experiment: Inhibition of human recombinant HDAC9 using fluorophore-conjugated substrate Boc-L-Lys(Ac)-AMC after 60 mins
[6] = test system: HeLa; experiment: cells; type: functional, cell-based; details: Homo sapiens, 72 h
[7] = biological target: T4, Histone deacetylase 8 (Homo sapiens, UniProt Q9BY41); experiment: Inhibition of human recombinant HDAC8 using Fluor de Lys as substrate
T4 sequence (Q9BY41 whole entry): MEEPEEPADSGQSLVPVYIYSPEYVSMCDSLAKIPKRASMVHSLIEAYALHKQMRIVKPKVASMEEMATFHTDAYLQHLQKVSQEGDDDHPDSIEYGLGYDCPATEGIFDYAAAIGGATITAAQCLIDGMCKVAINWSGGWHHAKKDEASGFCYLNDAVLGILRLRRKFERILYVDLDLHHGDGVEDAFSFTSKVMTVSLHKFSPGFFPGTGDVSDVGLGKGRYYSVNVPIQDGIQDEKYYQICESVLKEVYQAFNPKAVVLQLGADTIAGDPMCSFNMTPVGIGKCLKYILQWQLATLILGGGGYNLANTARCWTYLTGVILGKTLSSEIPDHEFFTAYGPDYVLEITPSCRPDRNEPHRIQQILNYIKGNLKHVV

[8] = test system: HeLa; experiment: cells; type: functional, cell-based; details: Homo sapiens, 48 h
[9] = biological target: Histone deacetylase 4 (Homo sapiens, UniProt P56524); experiment: Inhibition of human recombinant HDAC4 using fluorophore-conjugated substrate Boc-L-Lys(Ac)-AMC after 60 mins
[10] = biological target: Histone deacetylase (Homo sapiens) (UniProt Q13547+O15379+Q9UBN7+Q92769+Q9UQL6+Q8WUI4+Q9BY41+Q96DB2+P56524+Q9UKV0+Q969S8); experiment: Inhibition of HDAC in retinoic acid-differentiated human SH-SY5Y cells assessed as increase in histone H4 acetylation at 1 uM after 24 hrs by Western blot analysis in presence of 100 uM LY294002; type: cell-based
[11] = biological target: Histone deacetylase 2 (Homo sapiens, UniProt Q92769)
Chain of Histone deacetylase 2 (Q92769 whole entry): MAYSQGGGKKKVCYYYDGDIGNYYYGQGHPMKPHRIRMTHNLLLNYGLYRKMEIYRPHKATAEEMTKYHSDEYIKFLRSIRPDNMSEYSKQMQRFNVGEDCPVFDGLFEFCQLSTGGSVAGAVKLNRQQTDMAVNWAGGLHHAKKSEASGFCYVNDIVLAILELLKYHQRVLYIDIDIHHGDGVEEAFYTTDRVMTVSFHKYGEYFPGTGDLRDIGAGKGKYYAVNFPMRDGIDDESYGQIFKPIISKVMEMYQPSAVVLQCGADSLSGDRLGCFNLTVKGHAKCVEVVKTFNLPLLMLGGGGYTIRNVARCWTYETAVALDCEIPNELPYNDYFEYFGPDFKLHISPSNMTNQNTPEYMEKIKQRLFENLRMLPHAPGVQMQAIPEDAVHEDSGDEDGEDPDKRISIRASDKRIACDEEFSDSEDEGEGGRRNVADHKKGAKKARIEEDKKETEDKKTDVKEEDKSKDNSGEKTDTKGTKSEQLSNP

Chain of Histone deacetylase 9 (Q9UKV0 whole entry): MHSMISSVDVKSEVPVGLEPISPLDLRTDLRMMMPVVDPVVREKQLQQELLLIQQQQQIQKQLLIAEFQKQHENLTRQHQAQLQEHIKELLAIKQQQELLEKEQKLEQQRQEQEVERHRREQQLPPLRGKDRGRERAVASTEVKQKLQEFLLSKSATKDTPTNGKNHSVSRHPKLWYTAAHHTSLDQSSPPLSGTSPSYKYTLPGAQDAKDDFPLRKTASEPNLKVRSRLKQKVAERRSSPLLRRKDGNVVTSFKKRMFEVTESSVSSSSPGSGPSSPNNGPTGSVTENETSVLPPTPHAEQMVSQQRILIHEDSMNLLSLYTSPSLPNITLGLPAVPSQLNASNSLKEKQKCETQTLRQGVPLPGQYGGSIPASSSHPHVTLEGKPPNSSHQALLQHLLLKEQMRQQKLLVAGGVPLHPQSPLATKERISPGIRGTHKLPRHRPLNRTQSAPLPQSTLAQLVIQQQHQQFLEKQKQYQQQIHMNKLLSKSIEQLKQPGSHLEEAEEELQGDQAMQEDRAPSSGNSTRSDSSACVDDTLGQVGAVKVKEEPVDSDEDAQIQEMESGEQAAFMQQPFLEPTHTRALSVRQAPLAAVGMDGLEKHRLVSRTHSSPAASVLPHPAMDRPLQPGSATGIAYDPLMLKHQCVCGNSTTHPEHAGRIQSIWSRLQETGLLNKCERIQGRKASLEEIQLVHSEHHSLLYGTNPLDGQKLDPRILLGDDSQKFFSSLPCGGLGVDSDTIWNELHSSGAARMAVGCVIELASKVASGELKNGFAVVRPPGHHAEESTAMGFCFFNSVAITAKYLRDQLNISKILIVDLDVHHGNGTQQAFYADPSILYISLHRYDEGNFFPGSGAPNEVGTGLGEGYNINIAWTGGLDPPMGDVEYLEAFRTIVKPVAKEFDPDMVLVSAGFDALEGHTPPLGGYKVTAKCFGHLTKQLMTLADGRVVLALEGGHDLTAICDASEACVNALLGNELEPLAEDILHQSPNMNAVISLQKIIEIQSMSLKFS
Chain of Histone deacetylase 4 (P56524 whole entry): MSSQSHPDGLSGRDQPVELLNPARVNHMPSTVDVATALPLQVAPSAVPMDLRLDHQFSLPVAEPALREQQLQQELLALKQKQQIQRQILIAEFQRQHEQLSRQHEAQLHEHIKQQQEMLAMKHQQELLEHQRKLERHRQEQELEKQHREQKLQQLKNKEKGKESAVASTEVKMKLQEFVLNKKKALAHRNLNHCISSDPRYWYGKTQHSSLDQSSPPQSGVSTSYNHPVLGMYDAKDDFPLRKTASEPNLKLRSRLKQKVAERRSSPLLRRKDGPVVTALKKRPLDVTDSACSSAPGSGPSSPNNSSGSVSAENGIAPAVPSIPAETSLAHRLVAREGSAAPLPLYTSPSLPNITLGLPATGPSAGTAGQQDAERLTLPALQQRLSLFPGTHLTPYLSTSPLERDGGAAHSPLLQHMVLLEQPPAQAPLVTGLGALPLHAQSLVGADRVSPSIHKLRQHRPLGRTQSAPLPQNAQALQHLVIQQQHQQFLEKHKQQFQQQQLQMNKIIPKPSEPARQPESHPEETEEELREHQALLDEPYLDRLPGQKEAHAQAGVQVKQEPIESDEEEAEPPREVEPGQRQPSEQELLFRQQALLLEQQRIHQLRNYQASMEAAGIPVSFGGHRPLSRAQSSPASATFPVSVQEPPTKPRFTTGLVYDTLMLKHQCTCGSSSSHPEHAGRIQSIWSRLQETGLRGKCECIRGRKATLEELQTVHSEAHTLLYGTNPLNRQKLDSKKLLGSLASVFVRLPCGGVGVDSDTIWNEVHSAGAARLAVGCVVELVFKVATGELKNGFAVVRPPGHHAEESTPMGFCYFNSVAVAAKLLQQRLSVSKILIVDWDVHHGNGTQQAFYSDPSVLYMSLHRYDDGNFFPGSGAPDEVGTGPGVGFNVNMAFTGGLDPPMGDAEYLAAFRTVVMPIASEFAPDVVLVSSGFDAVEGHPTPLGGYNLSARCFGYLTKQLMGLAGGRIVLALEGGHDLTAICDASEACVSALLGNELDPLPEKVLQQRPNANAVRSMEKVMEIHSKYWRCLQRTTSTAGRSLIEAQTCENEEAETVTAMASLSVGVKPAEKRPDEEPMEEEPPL

| IC50 [1] | IC50 [2] | EC50 [3] | IC50 [4] | IC50 [5] | EC50 [6] | IC50 [7] | EC50 [8] | IC50 [9] | inhibition [10] | IC50 [11] | Compound |
| --- | --- | --- | --- | --- | --- | --- | --- | --- | --- | --- | --- |
| 0.776 µM | 2.23 µM | 26.5 µM | 0.116 µM | 0.0378 µM | 4.7 µM | 0.651 µM | 10.7 µM | 0.432 µM | Active | 0.78 µM | [N-]=[N+]=NCc1cc(N=[N+]=[N-])cc(C(=O)Nc2ccc(-c3cc(C(=O)NCCCCCCC(=O)NO)no3)cc2)c1 |
| 0.14 µM | 4.51 µM | 30.6 µM | 0.476 µM | 0.704 µM | 15 µM | 0.017 µM | 23.7 µM | 0.379 µM | Active | 1 µM | [N-]=[N+]=NCc1cc(Cn2cc(NC(=O)CCCCCCC(=O)NO)cn2)cc(N=[N+]=[N-])c1 |
